Test results as given in PubChem BioAssay AID256 (DTP/NCI, 2004).
Where “and” joins values, the source holds several entries; their conditions need not be identical. Identical values can stand only once. Inconclusive results and toxic doses are left out. The calls were made as follows: active = survival T/C of 150% or more; inactive = T/C below 125% in these data.

Test system: CD2F1 mice, L1210 leukemia ip, survival T/C
Assay: NCI In Vivo Anticancer Drug Screen. Data for tumor model L1210 Leukemia (intraperitoneal) in CD2F1 (CDF1) mice
Details: higher = longer survival
In short: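 Tumor-bearing mice (transplanted tumor) were split into treated and vehicle control groups, and the measured endpoint of each treated group was divided by that of its vehicle controls.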

[1] = endpoint: mean survival time, dose: 25.0 mg/kg/injection, schedule: Q01DX009 (ip), vehicle: Klucel (hydroxypropylcellulose) (HPC)
[2] = endpoint: mean survival time, dose: 100.0 mg/kg/injection, schedule: Q04DX003 (ip), vehicle: saline with Tween-80
[3] = endpoint: mean survival time, dose: 200.0 mg/kg/injection, schedule: Q04DX003 (ip), vehicle: saline with Tween-80

Measured: T/C

CCCCCCCCCCCCCCCC(=O)N(C(C)CCCN(CC)CC)C(C)CCCN(CC)CC (configuration not stated)
inactive: endpoint: mean survival time, dose: 6.25 mg/kg/injection, schedule: Q01DX009 (ip), vehicle: Klucel (hydroxypropylcellulose) (HPC) 101 % of control | endpoint: mean survival time, dose: 12.5 mg/kg/injection, schedule: Q01DX009 (ip), vehicle: Klucel (hydroxypropylcellulose) (HPC) 100 % of control | [1] 91 % of control

CCCCCCCCCCCCCCCCCCN1CCCN(CCCCCCCCCCCCCCCCCC)CC1
inactive: endpoint: mean survival time, dose: 25.0 mg/kg/injection, schedule: Q01DX009 (ip), vehicle: saline with Tween-80 107 % of control and 111 % of control | endpoint: mean survival time, dose: 25.0 mg/kg/injection, schedule: Q04DX002 (ip), vehicle: saline with Tween-80 93 % of control and 98 % of control | endpoint: mean survival time, dose: 50.0 mg/kg/injection, schedule: Q01DX001 (ip), vehicle: saline with Tween-80 98 % of control | endpoint: mean survival time, dose: 50.0 mg/kg/injection, schedule: Q01DX009 (ip), vehicle: other 93 % of control and 95 % of control | endpoint: mean survival time, dose: 50.0 mg/kg/injection, schedule: Q04DX002 (ip), vehicle: saline with Tween-80 89 % of control and 97 % of control | endpoint: mean survival time, dose: 50.0 mg/kg/injection, schedule: Q04DX003 (ip), vehicle: saline with Tween-80 104 % of control | endpoint: mean survival time, dose: 100.0 mg/kg/injection, schedule: Q01DX001 (ip), vehicle: other 94 % of control | endpoint: mean survival time, dose: 100.0 mg/kg/injection, schedule: Q01DX001 (ip), vehicle: saline with Tween-80 91 % of control | endpoint: mean survival time, dose: 100.0 mg/kg/injection, schedule: Q01DX009 (ip), vehicle: other 115 % of control and 101 % of control | endpoint: mean survival time, dose: 100.0 mg/kg/injection, schedule: Q04DX002 (ip), vehicle: other 94 % of control and 96 % of control | endpoint: mean survival time, dose: 100.0 mg/kg/injection, schedule: Q04DX003 (ip), vehicle: other 93 % of control | [2] 89 % of control | endpoint: mean survival time, dose: 200.0 mg/kg/injection, schedule: Q01DX001 (ip), vehicle: other 98 % of control | endpoint: mean survival time, dose: 200.0 mg/kg/injection, schedule: Q01DX001 (ip), vehicle: saline with Tween-80 95 % of control | endpoint: mean survival time, dose: 200.0 mg/kg/injection, schedule: Q01DX009 (ip), vehicle: other 102 % of control and 108 % of control | endpoint: mean survival time, dose: 200.0 mg/kg/injection, schedule: Q04DX002 (ip), vehicle: other 96 % of control and 105 % of control | endpoint: mean survival time, dose: 200.0 mg/kg/injection, schedule: Q04DX003 (ip), vehicle: other 96 % of control | [3] 101 % of control | endpoint: mean survival time, dose: 400.0 mg/kg/injection, schedule: Q01DX001 (ip), vehicle: other 110 % of control | endpoint: mean survival time, dose: 400.0 mg/kg/injection, schedule: Q01DX009 (ip), vehicle: other 101 % of control and 104 % of control | endpoint: mean survival time, dose: 400.0 mg/kg/injection, schedule: Q04DX002 (ip), vehicle: other 105 % of control | endpoint: mean survival time, dose: 400.0 mg/kg/injection, schedule: Q04DX003 (ip), vehicle: other 100 % of control

O=C(O)C/[N+]([O-])=N\O
inactive: endpoint: mean survival time, dose: 100.0 mg/kg/injection, schedule: Q04DX003 (ip), vehicle: saline 96 % of control | endpoint: mean survival time, dose: 200.0 mg/kg/injection, schedule: Q04DX003 (ip), vehicle: saline 102 % of control | endpoint: mean survival time, dose: 400.0 mg/kg/injection, schedule: Q04DX003 (ip), vehicle: saline 105 % of control

CC1(CC(C)(C)c2ccccc2)OCCO1
inactive: [1] 100 % of control | endpoint: mean survival time, dose: 50.0 mg/kg/injection, schedule: Q01DX009 (ip), vehicle: Klucel (hydroxypropylcellulose) (HPC) 98 % of control | endpoint: mean survival time, dose: 100.0 mg/kg/injection, schedule: Q01DX009 (ip), vehicle: Klucel (hydroxypropylcellulose) (HPC) 100 % of control | endpoint: mean survival time, dose: 200.0 mg/kg/injection, schedule: Q01DX009 (ip), vehicle: Klucel (hydroxypropylcellulose) (HPC) 102 % of control | endpoint: mean survival time, dose: 400.0 mg/kg/injection, schedule: Q01DX009 (ip), vehicle: Klucel (hydroxypropylcellulose) (HPC) 100 % of control

COC(=O)c1cccc(OC)c1OC
inactive: endpoint: mean survival time, dose: 100.0 mg/kg/injection, schedule: Q01DX009 (ip), vehicle: saline with Tween-80 101 % of control | [2] 108 % of control | endpoint: mean survival time, dose: 200.0 mg/kg/injection, schedule: Q01DX009 (ip), vehicle: saline with Tween-80 96 % of control | [3] 98 % of control | endpoint: mean survival time, dose: 400.0 mg/kg/injection, schedule: Q01DX009 (ip), vehicle: saline with Tween-80 98 % of control | endpoint: mean survival time, dose: 400.0 mg/kg/injection, schedule: Q04DX003 (ip), vehicle: saline with Tween-80 100 % of control

C/C=C/CC(C)C(O)C1C(=O)NC(CC)C(=O)N(C)CC(=O)N(C)C(CC(C)C)C(=O)NC(C(C)C)C(=O)N(C)C(CC(C)C)C(=O)NC(C)C(=O)NC(C)C(=O)N(C)C(CC(C)C)C(=O)N(C)C(CC(C)C)C(=O)N(C)C(C(C)C)C(=O)N1C (configuration not stated)
inactive: endpoint: median survival time, dose: 25.0 mg/kg/injection, schedule: Q01DX009 (ip), vehicle: Klucel (hydroxypropylcellulose) (HPC) 102 % of control | endpoint: median survival time, dose: 50.0 mg/kg/injection, schedule: Q01DX009 (ip), vehicle: Klucel (hydroxypropylcellulose) (HPC) 107 % of control | endpoint: median survival time, dose: 100.0 mg/kg/injection, schedule: Q01DX009 (ip), vehicle: Klucel (hydroxypropylcellulose) (HPC) 106 % of control
